Active and inactive are the calls of the source. The rule behind the calls is not given here.
Assays:
MCF7 [1] = test: Antiproliferative activity against human MCF7 cells assessed as inhibition of cell growth incubated for 72 hrs under dark condition by MTT assay; assay type: functional, cell-based; settings: MCF7, 72 h
MCF7 [2] = test: Antiproliferative activity against human MCF7 cells assessed as inhibition of cell growth incubated for 72 hrs under photoirradiation with 6 cool white lamps for 15 mins at 4,28 and 52 hrs after compound addition by MTT assay; assay type: functional, cell-based; settings: MCF7, light or radiation study
NCI-H460 [3] = test: Antiproliferative activity against human NCI-H460 cells assessed as inhibition of cell growth incubated for 72 hrs under dark condition by MTT assay; assay type: functional, cell-based; settings: NCI-H460, 72 h
NCI-H460 [4] = test: Antiproliferative activity against human NCI-H460 cells assessed as inhibition of cell growth incubated for 72 hrs under photoirradiation with 6 cool white lamps for 15 mins at 4,28 and 52 hrs after compound addition by MTT assay; assay type: functional, cell-based; settings: NCI-H460, light or radiation study
HCT-116 [5] = test: Antiproliferative activity against human HCT-116 cells assessed as inhibition of cell growth incubated for 72 hrs under dark condition by MTT assay; assay type: functional, cell-based; settings: HCT-116, 72 h
HCT-116 [6] = test: Antiproliferative activity against human HCT-116 cells assessed as inhibition of cell growth incubated for 72 hrs under photoirradiation with 6 cool white lamps for 15 mins at 4,28 and 52 hrs after compound addition by MTT assay; assay type: functional, cell-based; settings: HCT-116, light or radiation study
[7] = Drug localization in cytoplasm of human NCI-H460 cells incubated for 30 mins by Hoechst 33342 staining based confocal microscopic analysis; assay type: ADME, subcellular; settings: nci-h460, 0.5 h
[8] = Drug localization in nuclear membrane of human NCI-H460 cells incubated for 30 mins by Hoechst 33342 staining based confocal microscopic analysis; assay type: ADME, cell membranes; settings: nci-h460, 0.5 h
[9] = Drug localization in golgi body of human NCI-H460 cells incubated for 30 mins by Hoechst 33342 staining based confocal microscopic analysis; assay type: ADME, subcellular; settings: nci-h460, 0.5 h
[10] = Drug localization in endoplasmic reticulum of human NCI-H460 cells incubated for 30 mins by Hoechst 33342 staining based confocal microscopic analysis; assay type: ADME, subcellular; settings: nci-h460, 0.5 h
[11] = Drug localization in lipid droplets of human NCI-H460 cells incubated for 30 mins by Hoechst 33342 staining based confocal microscopic analysis; assay type: ADME, subcellular, Lipid droplet; settings: nci-h460, 0.5 h
NCI-H460 [12] = test: Induction of cell death in human NCI-H460 cells assessed as dye bleaching preincubated for 30 mins followed by light irradiation for 15 to 30 mins by Hoechst 33342 staining based confocal microscopic analysis; assay type: functional; settings: time 45-60 min
NCI-H460 [13] = test: Induction of cell death in human NCI-H460 cells assessed as cell shrinkage preincubated for 30 mins followed by light irradiation for 15 to 30 mins by Hoechst 33342 staining based confocal microscopic analysis; assay type: functional; settings: time 45-60 min
NCI-H460 [14] = test: Induction of cell death in human NCI-H460 cells assessed as shrinkage of nuclear volume preincubated for 30 mins followed by light irradiation for 15 to 30 mins by Hoechst 33342 staining based confocal microscopic analysis; assay type: functional; settings: time 45-60 min
NCI-H460 [15] = test: Induction of cell death in human NCI-H460 cells assessed as membrane blebbing preincubated for 30 mins followed by light irradiation for 15 to 30 mins by Hoechst 33342 staining based confocal microscopic analysis; assay type: functional; settings: time 45-60 min
[16] = Drug uptake in HEK293T cells by fluorescence microscopic analysis; assay type: ADME, cell-based; settings: human, hek-293t
HEK-293T [17] = test: Induction of apoptosis in HEK293T cells assessed as dye bleaching irradiated with visible light by Hoechst 33342 staining based confocal microscopic analysis; assay type: toxicity, cell-based; settings: human
HEK-293T [18] = test: Induction of apoptosis in HEK293T cells assessed as cell death irradiated with visible light by Hoechst 33342 staining based confocal microscopic analysis; assay type: toxicity; settings: human
[19] = Absorption property of compound in CH3CN assessed as maximal wavelength by UV-vis spectrophotometer; assay type: physicochemical
[20] = Emission property of compound in CH3CN assessed as maximal wavelength by […]; assay type: physicochemical
[21] = Absorption property of compound in CH3CN assessed as maximal molar absorption coefficient by UV-vis spectrophotometer; assay type: physicochemical
[22] = Fluorescence property of compound in CH3CN assessed as fluorescence quantum yield by spectrofluorometric analysis; assay type: physicochemical
[23] = Induction of singlet oxygen production in CH3CN assessed as decrease in fluorescence intensity at 450 nm under photoirradiation with visible light and measured after 15 sec by DPBF based assay relative to control; assay type: functional; parameters: scale not given: the % may be the effect or the level left
[24] = Induction of singlet oxygen production in CH3CN assessed as decrease in fluorescence intensity at 450 nm under photoirradiation with visible light and measured after 30 sec by DPBF based assay relative to control; assay type: functional; parameters: scale not given: the % may be the effect or the level left
[25] = Induction of singlet oxygen production in CH3CN assessed as decrease in fluorescence intensity at 450 nm under photoirradiation with visible light and measured after 45 sec by DPBF based assay relative to control; assay type: functional; parameters: scale not given: the % may be the effect or the level left
[26] = Induction of singlet oxygen production in CH3CN assessed as singlet oxygen quantum yield at 450 nm under photoirradiation with visible light and measured after 15 to 60 sec by DPBF based assay; assay type: functional; settings: time 15-60 sec
[27] = Cytotoxicity against HEK293T cells assessed as inhibition of cell growth incubated for 72 hrs under dark condition by MTT assay; assay type: toxicity, cell-based, HEK-293T; settings: human
[28] = Cytotoxicity against HEK293T cells assessed as inhibition of cell growth incubated for 72 hrs under photoirradiation with 6 cool white lamps for 15 mins at 4,28 and 52 hrs after compound addition by MTT assay; assay type: toxicity, cell-based, HEK-293T; settings: human
[29] = Cytotoxicity against human HaCaT cells assessed as inhibition of cell growth incubated for 72 hrs under dark condition by MTT assay; assay type: toxicity, cell-based
[30] = Cytotoxicity against human HaCaT cells assessed as inhibition of cell growth incubated for 72 hrs under photoirradiation with 6 cool white lamps for 15 mins at 4,28 and 52 hrs after compound addition by MTT assay; assay type: toxicity, cell-based
[31] = Induction of singlet oxygen production in CH3CN assessed as decrease in fluorescence intensity at 455 nm under photoirradiation with visible light and measured after 15 sec by DPBF based assay relative to control; assay type: functional; parameters: scale not given: the % may be the effect or the level left
[32] = Induction of singlet oxygen production in CH3CN assessed as decrease in fluorescence intensity at 455 nm under photoirradiation with visible light and measured after 30 sec by DPBF based assay relative to control; assay type: functional; parameters: scale not given: the % may be the effect or the level left
[33] = Induction of singlet oxygen production in CH3CN assessed as decrease in fluorescence intensity at 455 nm under photoirradiation with visible light and measured after 45 sec by DPBF based assay relative to control; assay type: functional; parameters: scale not given: the % may be the effect or the level left
[34] = Induction of singlet oxygen production in CH3CN assessed as decrease in fluorescence intensity at 455 nm under photoirradiation with visible light and measured after 1 min by DPBF based assay relative to control; assay type: functional; parameters: scale not given: the % may be the effect or the level left
[35] = Induction of singlet oxygen production in CH3CN assessed as singlet oxygen quantum yield; assay type: functional
[36] = Fluorescence property of compound in CH3OH assessed as fluorescence quantum yield; assay type: physicochemical
HCT-116 [37] = test: Induction of ROS generation in human HCT-116 cells at 5 uM incubated for 1 hrs under dark condition by DCFH-DA staining based fluorescence analysis; assay type: functional, cell-based
HCT-116 [38] = test: Induction of ROS generation in human HCT-116 cells assessed as increase in oxidative stress at 5 uM preincubated with compound for 1 hrs followed by photoirradiation with 6 cool white lamps by DCFH-DA staining based fluorescence analysis; assay type: functional, cell-based
[39] = Drug localization in cytoplasm of human NCI-H460 cells at 10 uM incubated for 30 mins by Hoechst 33342 staining based confocal microscopic analysis; assay type: ADME, subcellular; settings: nci-h460, 0.5 h
[40] = Drug localization in nuclear membrane of human NCI-H460 cells at 10 uM incubated for 30 mins by Hoechst 33342 staining based confocal microscopic analysis; assay type: ADME, cell membranes; settings: nci-h460, 0.5 h
[41] = Drug localization in golgi body of human NCI-H460 cells at 10 uM incubated for 30 mins by Hoechst 33342 staining based confocal microscopic analysis; assay type: ADME, subcellular; settings: nci-h460, 0.5 h
[42] = Drug localization in endoplasmic reticulum of human NCI-H460 cells at 10 uM incubated for 30 mins by Hoechst 33342 staining based confocal microscopic analysis; assay type: ADME, subcellular; settings: nci-h460, 0.5 h
[43] = Drug localization in lipid droplets of human NCI-H460 cells at 10 uM incubated for 30 mins by Hoechst 33342 staining based confocal microscopic analysis; assay type: ADME, subcellular, Lipid droplet; settings: nci-h460, 0.5 h
NCI-H460 [44] = test: Induction of cell death in human NCI-H460 cells assessed as dye bleaching at 1 uM preincubated for 30 mins followed by light irradiation for 15 to 30 mins by Hoechst 33342 staining based confocal microscopic analysis; assay type: functional; settings: time 45-60 min
NCI-H460 [45] = test: Induction of cell death in human NCI-H460 cells assessed as cell shrinkage at 1 uM preincubated for 30 mins followed by light irradiation for 15 to 30 mins by Hoechst 33342 staining based confocal microscopic analysis; assay type: functional; settings: time 45-60 min
NCI-H460 [46] = test: Induction of cell death in human NCI-H460 cells assessed as shrinkage of nuclear volume at 1 uM preincubated for 30 mins followed by light irradiation for 15 to 30 mins by Hoechst 33342 staining based confocal microscopic analysis; assay type: functional; settings: time 45-60 min
NCI-H460 [47] = test: Induction of cell death in human NCI-H460 cells assessed as membrane blebbing at 1 uM preincubated for 30 mins followed by light irradiation for 15 to 30 mins by Hoechst 33342 staining based confocal microscopic analysis; assay type: functional; settings: time 45-60 min

Structure (SMILES)	IC50 (MCF7 [1]) [nM]	IC50 (MCF7 [2]) [nM]	IC50 (NCI-H460 [3]) [nM]	IC50 (NCI-H460 [4]) [nM]	IC50 (HCT-116 [5]) [nM]	IC50 (HCT-116 [6]) [nM]	Drug uptake [7]	Drug uptake [8]	Drug uptake [9]	Drug uptake [10]	Drug uptake [11]	Activity (NCI-H460 [12])	Activity (NCI-H460 [13])	Drug uptake [16]	Activity (HEK-293T [17])	Activity (HEK-293T [18])	Activity [19] [nm]	Activity [20] [nm]	Activity [21] [M⁻¹ cm⁻¹]	Activity [22]	other results
CC(=O)OCc1ccccc1OCC1=C2C(C)=C(Br)C(C)=[N+]2[B-](C)(C)n2c(C)c(Br)c(C)c21	18000	170	33000	190	25000	160	Active	Active	Active	Active	Active	Active	Active	Active	Toxic	Toxic	531	558	37724	0.043	Activity (NCI-H460 [14]): Active; Activity (NCI-H460 [15]): Active
COc1cccc(COC(C)=O)c1OCC1=C2C(C)=C(Br)C(C)=[N+]2[B-](C)(C)n2c(C)c(Br)c(C)c21	≥ 100000	150	> 100000	230	≥ 100000	190	Active	Active	Active	Active	Active	Active	Active	Active	Toxic	Toxic	530	559	59622	0.034	Activity [23]: 63%; Activity [24]: 91.8%; Activity [25]: 99.9%; Activity [26]: 0.73; IC50 at 72 h [27]: ≥ 100000 nM; IC50 at 72 h [28]: 300 nM; IC50 at 72 h [29]: > 100000 nM; IC50 at 72 h [30]: 300 nM; Activity (NCI-H460 [14]): Active; Activity (NCI-H460 [15]): Active
C1=Cc2nc1c(-c1ccccc1)c1ccc([nH]1)c(-c1ccccc1)c1nc(c(-c3ccccc3)c3ccc([nH]3)c2-c2ccccc2)C=C1																					Activity [31]: 43.3%; Activity [32]: 63%; Activity [33]: 84.2%; Activity [34]: 95.1%; Activity [35]: 0.5
CCN(CC)c1ccc2c(-c3ccccc3C(=O)O)c3ccc(=[N+](CC)CC)cc-3oc2c1.[Cl-] [RHODAMINE]																					Activity [36]: 0.66
CC1=CC(C)=[N+]2C1=C(CO)c1c(C)cc(C)n1[B-]2(C)C	> 100000	150	> 100000	170	> 100000	170								Active	Toxic	Toxic	505	517	88894	0.32	IC50 at 72 h [27]: 38000 nM; IC50 at 72 h [28]: 300 nM; IC50 at 72 h [29]: 68000 nM; IC50 at 72 h [30]: 300 nM; Activity (HCT-116 [37]): inactive; Activity (HCT-116 [38]): Active; Drug uptake [39]: Active; Drug uptake [40]: Active; Drug uptake [41]: Active; Drug uptake [42]: Active; Drug uptake [43]: Active; Activity (NCI-H460 [44]): Active; Activity (NCI-H460 [45]): Active; Activity (NCI-H460 [46]): Active; Activity (NCI-H460 [47]): Active
